Results reported in patent US5288743A, “Indole carboxylate derivatives which inhibit leukotriene biosynthesis” (Abbott Laboratories, priority 1992, dated 1994).

What was measured:
[1] = system: LTB4 biosynthesis in human PMNL; assay: Inhibition of calcium ionophore A23187-induced LTB4 biosynthesis in human polymorphonuclear leukocytes (PMNL); type: cell-based; details: human PMNL (5×10^6 cells/250 μL), 15 min preincubation at 37° C., A23187 8.3 μM, 10 min, LTB4 by HPLC
Method: Inhibition of leukotriene biosynthesis was evaluated in assays, involving calcium ionophore-induced LTB4 biosynthesis expressed by human polymorphonuclear leukocytes (PMNL) or human whole blood. Human PMNL were isolated from heparinized (20 USP units/mL) venous blood using Ficoll-Hypaque Mono-Poly Resolving Medium. Human PMNL suspensions (5×10^6 cells/250 μL) were preincubated with test compounds or vehicle for 15 min at 37° C. followed by calcium ionophore A23187 challenge (final concentration of 8.3 μM) and the reaction terminated after 10 min by adding two volumes of methanol containing prostaglandin B2 as an internal recovery standard. The methanol extracts were analyzed for LTB4 content by HPLC.

[2] = system: LTB4 biosynthesis in human whole blood; assay: Inhibition of calcium ionophore A23187-induced LTB4 biosynthesis in human whole blood; type: cell-based; details: 0.5 h; human heparinized whole blood, A23187 50 μM, 30 minutes at 37° C., LTB4 by radioimmunoassay
Method: The assay using human heparinized whole blood was incubated for 30 minutes at 37° C. after adding 50 μM of ionophore A23187. The plasma layer was obtained by centrifugation and deproteinized by the addition of four volumes of methanol. The methanol extract was analyzed for LTB4 using a commercially available radioimmunoassay.

leukotriene biosynthesis = assay: Inhibition of leukotriene biosynthesis in vivo, rat peritoneal anaphylaxis model, oral administration; details: for percent inhibition of leukotriene biosynthesis: oral dose of 30 μmol/kg, gavage one hour prior to antigen challenge
Method: Inhibition of the biosynthesis of leukotrienes in vivo after oral administration of compound was determined using a rat peritoneal anaphylaxis model in a similar manner as that described by Young and coworkers (Young, P. R.; Dyer, R. D.; Carter, G. W. Fed. Proc., Fed. Am. Soc. Exp. Biol. 1985, 44, 1185). In this model rats were injected intraperitoneally (ip) with rabbit antibody to bovine serum albumin (BSA) and three hours later injected ip with BSA to induce an antigen-antibody response. Rats were sacrificed 15 minutes after this challenge and the peritoneal fluids were collected and analyzed for leukotriene levels. Test compounds were administered by gavage one hour prior to the antigen challenge. Percent inhibition values were determined by comparing the treatment group to the mean of the control group. […] Compounds 5, 8, and 9 inhibit>50% leukotriene biosynthesis with an oral dose of 30 μmol/kg.

| IC50 [1] [nM] | IC50 [2] [nM] | Structure (SMILES) | ED50 (leukotriene biosynthesis; 1 h, po (gavage) one hour prior to antigen challenge, read-out: inhibits leukotriene biosynthesis, ED50) [mg/kg] | percent inhibition of leukotriene biosynthesis (leukotriene biosynthesis) [%] |
| --- | --- | --- | --- | --- |
| 15 | 2470 | CC(C)(C)Sc1c(CC(C)(C)C(=O)O)n(Cc2ccc(Cl)cc2)c2ccc(Oc3ccccn3)cc12 [Example 5, 3-[1-(4-chlorobenzyl)-3-(1,1-dimethylethylthio)-5-(pyrid-2-yloxy)indol-2-yl]-2,2-dimethylpropionic acid] | – | > 50 |
| < 800 | 3200 | CC(C)(C)Sc1c(CC(C)(C)C(=O)O)n(Cc2ccc(Cl)cc2)c2ccc(OCc3ccc(Cl)s3)cc12 [Example 6, 3-[1-(4-chlorobenzyl)-5-(5-chlorothien-2-ylmethoxy)-3-(1,1-dimethylethylthio)indol-2-yl]-2,2-dimethylpropionic acid] | – | – |
| 30 | 1600 | Cc1cc(C)nc(COc2ccc3c(c2)c(SC(C)(C)C)c(CC(C)(C)C(=O)O)n3Cc2ccc(Cl)cc2)n1 [Example 7, 3-[1-(4-chlorobenzyl)-3-(1,1-dimethylethylthio)-5-(4,6-dimethylpyrimid-2-ylmethoxy)indol-2-yl]-2,2-dimethylpropionic acid] | – | – |
| 17 | 110 | CC(C)(C)Sc1c(CC(C)(C)C(=O)O)n(Cc2ccc(Cl)cc2)c2ccc(OCc3cccc(Cl)n3)cc12 [Example 8, 3-[1-(4-chlorobenzyl)-5-(6-chloropyrid-2-ylmethoxy)-3-(1,1-dimethylethylthio)indol-2-yl]-2,2-dimethylpropionic acid] | – | > 50 |
| 4.4 | 40 | CC(C)(C)Sc1c(CC(C)(C)C(=O)O)n(Cc2ccc(Cl)cc2)c2ccc(OCc3cscn3)cc12 [Example 9, 3-[1-(4-chlorobenzyl)-3-(1,1-dimethylethylthio)-5-(thiazol-4-ylmethoxy)indol-2-yl]-2,2-dimethylpropionic acid] | – | > 50 |
| 7 | 1400 | CC(C)(C)Sc1c(CC(C)(C)C(=O)O)n(Cc2ccc(Cl)cc2)c2ccc(OCc3cccs3)cc12 [Example 10, 3-[1-(4-chlorobenzyl)-3-(1,1-dimethylethylthio)-5-(thien-2-ylmethoxy)indol-2-yl]-2,2-dimethylpropionic acid] | – | – |

Further lines, the compound ahead of its results:

| Structure (SMILES) | IC50 [1] [nM] | IC50 [2] [nM] | ED50 (leukotriene biosynthesis; 1 h, po (gavage) one hour prior to antigen challenge, read-out: inhibits leukotriene biosynthesis, ED50) [mg/kg] | percent inhibition of leukotriene biosynthesis (leukotriene biosynthesis) [%] |
| --- | --- | --- | --- | --- |
| CC(C)(C)Sc1c(CC(C)(C)C(=O)O)n(Cc2ccc(Cl)cc2)c2ccc(OCc3cccnc3)cc12 [Example 1, 3-[1-(4-chlorobenzyl)-3-(1,1-dimethylethylthio)-5-(pyrid-3-ylmethoxy)-indol-2-yl]-2,2-dimethylpropionic acid] | 17 | 1090 | – | – |
| CC(C)(C)Sc1c(CC(C)(C)C(=O)O)n(Cc2ccc(Cl)cc2)c2ccc(OCc3ccncc3)cc12 [Example 2, 3-[1-(4-chlorobenzyl)-3-(1,1-dimethylethylthio)-5-(pyrid-4-ylmethoxy)-indol-2-yl]-2,2-dimethylpropionic acid] | < 100 | 840 | – | – |
| CC(C)(C)Sc1c(CC(C)(C)C(=O)O)n(Cc2ccc(Cl)cc2)c2ccc(OCc3ccccn3)cc12 [Example 3, 3-[1-(4-chlorobenzyl)-3-(1,1-dimethylethylthio)-5-(pyrid-2-ylmethoxy)indol-2-yl]-2,2-dimethylpropionic acid] | < 50 | 50 | 0.1 | – |
| CC(C)(C)Sc1c(CC(C)(C)C(=O)O)n(Cc2ccc(Cl)cc2)c2ccc(OCc3ccc4ccccc4c3)cc12 [Example 4, 3-[1-(4-chlorobenzyl)-3-(1,1-dimethylethylthio)-5-(napth-2-ylmethoxy)indol-2-yl]-2,2-dimethylpropionic acid] | 12 | 4420 | – | – |
